Key:
Assay in all cases: post-emergent herbicidal activity, greenhouse
Assay type in all cases: in vivo
[1] = tested on: Barnyardgrass
Summary of the method: (§1)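 Seeds or propagules sown in compacted top soil, grown 2–3 weeks in greenhouse, then sprayed with compound solution/suspension containing ~0.4% emulsifier at tabulated rates. Injury scored visually versus untreated controls at ~2 and 4 weeks after treatment, expressed as a herbicidal activity index.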

[2] = tested on: Canada Thistle; details: Table I, 4 WAT
Summary of the method: as §1

[3] = tested on: Cocklebur
Summary of the method: as §1

[4] = tested on: Crabgrass; details: Table II
Summary of the method: as §1

[5] = tested on: Downy Brome
Summary of the method: as §1

[6] = tested on: Hemp Sesbania; details: Table II
Summary of the method: as §1

[7] = tested on: Johnsongrass; details: Table I, 4 WAT
Summary of the method: as §1

[8] = tested on: Lambsquarters
Summary of the method: as §1

[9] = tested on: Morningglory
Summary of the method: as §1

[10] = tested on: Panicum Spp; details: Table II
Summary of the method: as §1

[11] = tested on: Quackgrass; details: Table I, 4 WAT
Summary of the method: as §1

[12] = tested on: Rice; details: Table II
Summary of the method: as §1

[13] = tested on: Smartweed
Summary of the method: as §1

[14] = tested on: Sorghum; details: Table II
Summary of the method: as §1

[15] = tested on: Soybean; details: Table II
Summary of the method: as §1

[16] = tested on: Sugar Beet; details: Table II
Summary of the method: as §1

[17] = tested on: Velvetleaf
Summary of the method: as §1

[18] = tested on: Wheat; details: Table II
Summary of the method: as §1

[19] = tested on: Wild Buckwheat; details: Table II
Summary of the method: as §1

[20] = tested on: Yellow Nutsedge; details: Table I, 4 WAT
Summary of the method: as §1

## CC(C#N)OP(=O)(O)CNCC(=O)OCc1ccccc1 (stereo not shown) [Example 10, glycine, N-[[(1-cyanoethoxy)hydroxyphosphinyl]methyl]-,phenylmethyl ester]
[1]; Table I, 4 WAT, 5.6 kg/h
  post-emergent herbicidal activity index: 2 (50-74% control)
[1]; Table I, 4 WAT, 11.2 kg/h
  post-emergent herbicidal activity index: 3 (75-99% control)
[1]; Table II, 2 WAT, 0.011 kg/h
  post-emergent herbicidal activity index: 0 (0-24% control)
[1]; Table II, 2 WAT, 0.056 kg/h
  post-emergent herbicidal activity index: 0 (0-24% control)
[1]; Table II, 4 WAT, 0.28 kg/h
  post-emergent herbicidal activity index: 2 (50-74% control)
[1]; Table II, 4 WAT, 1.12 kg/h
  post-emergent herbicidal activity index: 2 (50-74% control)
[1]; Table II, 4 WAT, 5.6 kg/h
  post-emergent herbicidal activity index: 3 (75-99% control)
[2]; 5.6 kg/h
  post-emergent herbicidal activity index: 1 (25-49% control)
[2]; 11.2 kg/h
  post-emergent herbicidal activity index: 2 (50-74% control)
[3]; Table I, 4 WAT, 5.6 kg/h
  post-emergent herbicidal activity index: 2 (50-74% control)
[3]; Table I, 4 WAT, 11.2 kg/h
  post-emergent herbicidal activity index: 2 (50-74% control)
[3]; Table II, 2 WAT, 0.011 kg/h
  post-emergent herbicidal activity index: 0 (0-24% control)
[3]; Table II, 2 WAT, 0.056 kg/h
  post-emergent herbicidal activity index: 0 (0-24% control)
[3]; Table II, 4 WAT, 0.28 kg/h
  post-emergent herbicidal activity index: 1 (25-49% control)
[3]; Table II, 4 WAT, 1.12 kg/h
  post-emergent herbicidal activity index: 2 (50-74% control)
[3]; Table II, 4 WAT, 5.6 kg/h
  post-emergent herbicidal activity index: 3 (75-99% control)
[4]; 2 WAT, 0.011 kg/h
  post-emergent herbicidal activity index: 0 (0-24% control)
[4]; 2 WAT, 0.056 kg/h
  post-emergent herbicidal activity index: 1 (25-49% control)
[4]; 4 WAT, 0.28 kg/h
  post-emergent herbicidal activity index: 4 (100% control)
[4]; 4 WAT, 1.12 kg/h
  post-emergent herbicidal activity index: 4 (100% control)
[4]; 4 WAT, 5.6 kg/h
  post-emergent herbicidal activity index: 4 (100% control)
[5]; Table I, 4 WAT, 5.6 kg/h
  post-emergent herbicidal activity index: 2 (50-74% control)
[5]; Table I, 4 WAT, 11.2 kg/h
  post-emergent herbicidal activity index: 1 (25-49% control)
[5]; Table II, 2 WAT, 0.011 kg/h
  post-emergent herbicidal activity index: 0 (0-24% control)
[5]; Table II, 2 WAT, 0.056 kg/h
  post-emergent herbicidal activity index: 0 (0-24% control)
[5]; Table II, 4 WAT, 0.28 kg/h
  post-emergent herbicidal activity index: 1 (25-49% control)
[5]; Table II, 4 WAT, 1.12 kg/h
  post-emergent herbicidal activity index: 2 (50-74% control)
[5]; Table II, 4 WAT, 5.6 kg/h
  post-emergent herbicidal activity index: 2 (50-74% control)
[6]; 2 WAT, 0.011 kg/h
  post-emergent herbicidal activity index: 0 (0-24% control)
[6]; 2 WAT, 0.056 kg/h
  post-emergent herbicidal activity index: 0 (0-24% control)
[6]; 4 WAT, 1.12 kg/h
  post-emergent herbicidal activity index: 1 (25-49% control)
[6]; 4 WAT, 5.6 kg/h
  post-emergent herbicidal activity index: 1 (25-49% control)
[7]; 5.6 kg/h
  post-emergent herbicidal activity index: 0 (0-24% control)
[7]; 11.2 kg/h
  post-emergent herbicidal activity index: 1 (25-49% control)
[8]; Table I, 4 WAT, 5.6 kg/h
  post-emergent herbicidal activity index: 3 (75-99% control)
[8]; Table I, 4 WAT, 11.2 kg/h
  post-emergent herbicidal activity index: 3 (75-99% control)
[8]; Table II, 2 WAT, 0.011 kg/h
  post-emergent herbicidal activity index: 0 (0-24% control)
[8]; Table II, 2 WAT, 0.056 kg/h
  post-emergent herbicidal activity index: 1 (25-49% control)
[8]; Table II, 4 WAT, 0.28 kg/h
  post-emergent herbicidal activity index: 2 (50-74% control)
[8]; Table II, 4 WAT, 1.12 kg/h
  post-emergent herbicidal activity index: 3 (75-99% control)
[8]; Table II, 4 WAT, 5.6 kg/h
  post-emergent herbicidal activity index: 3 (75-99% control)
[9]; Table I, 4 WAT, 5.6 kg/h
  post-emergent herbicidal activity index: 2 (50-74% control)
[9]; Table I, 4 WAT, 11.2 kg/h
  post-emergent herbicidal activity index: 2 (50-74% control)
[9]; Table II, 2 WAT, 0.011 kg/h
  post-emergent herbicidal activity index: 0 (0-24% control)
[9]; Table II, 2 WAT, 0.056 kg/h
  post-emergent herbicidal activity index: 0 (0-24% control)
[9]; Table II, 4 WAT, 0.28 kg/h
  post-emergent herbicidal activity index: 2 (50-74% control)
[9]; Table II, 4 WAT, 1.12 kg/h
  post-emergent herbicidal activity index: 2 (50-74% control)
[9]; Table II, 4 WAT, 5.6 kg/h
  post-emergent herbicidal activity index: 2 (50-74% control)
[10]; 2 WAT, 0.011 kg/h
  post-emergent herbicidal activity index: 0 (0-24% control)
[10]; 2 WAT, 0.056 kg/h
  post-emergent herbicidal activity index: 0 (0-24% control)
[10]; 4 WAT, 0.28 kg/h
  post-emergent herbicidal activity index: 3 (75-99% control)
[10]; 4 WAT, 1.12 kg/h
  post-emergent herbicidal activity index: 4 (100% control)
[10]; 4 WAT, 5.6 kg/h
  post-emergent herbicidal activity index: 4 (100% control)
[11]; 5.6 kg/h
  post-emergent herbicidal activity index: 2 (50-74% control)
[11]; 11.2 kg/h
  post-emergent herbicidal activity index: 2 (50-74% control)
[12]; 2 WAT, 0.011 kg/h
  post-emergent herbicidal activity index: 0 (0-24% control)
[12]; 2 WAT, 0.056 kg/h
  post-emergent herbicidal activity index: 0 (0-24% control)
[12]; 4 WAT, 0.28 kg/h
  post-emergent herbicidal activity index: 0 (0-24% control)
[12]; 4 WAT, 1.12 kg/h
  post-emergent herbicidal activity index: 1 (25-49% control)
[12]; 4 WAT, 5.6 kg/h
  post-emergent herbicidal activity index: 2 (50-74% control)
[13]; Table I, 4 WAT, 11.2 kg/h
  post-emergent herbicidal activity index: 4 (100% control)
[13]; Table II, 2 WAT, 0.011 kg/h
  post-emergent herbicidal activity index: 0 (0-24% control)
[13]; Table II, 2 WAT, 0.056 kg/h
  post-emergent herbicidal activity index: 0 (0-24% control)
[13]; Table II, 4 WAT, 0.28 kg/h
  post-emergent herbicidal activity index: 4 (100% control)
[13]; Table II, 4 WAT, 1.12 kg/h
  post-emergent herbicidal activity index: 4 (100% control)
[13]; Table II, 4 WAT, 5.6 kg/h
  post-emergent herbicidal activity index: 4 (100% control)
[14]; 2 WAT, 0.011 kg/h
  post-emergent herbicidal activity index: 0 (0-24% control)
[14]; 2 WAT, 0.056 kg/h
  post-emergent herbicidal activity index: 0 (0-24% control)
[14]; 4 WAT, 0.28 kg/h
  post-emergent herbicidal activity index: 2 (50-74% control)
[14]; 4 WAT, 1.12 kg/h
  post-emergent herbicidal activity index: 2 (50-74% control)
[14]; 4 WAT, 5.6 kg/h
  post-emergent herbicidal activity index: 3 (75-99% control)
[15]; 2 WAT, 0.011 kg/h
  post-emergent herbicidal activity index: 0 (0-24% control)
[15]; 2 WAT, 0.056 kg/h
  post-emergent herbicidal activity index: 1 (25-49% control)
[15]; 4 WAT, 0.28 kg/h
  post-emergent herbicidal activity index: 1 (25-49% control)
[15]; 4 WAT, 1.12 kg/h
  post-emergent herbicidal activity index: 1 (25-49% control)
[15]; 4 WAT, 5.6 kg/h
  post-emergent herbicidal activity index: 3 (75-99% control)
[16]; 2 WAT, 0.011 kg/h
  post-emergent herbicidal activity index: 0 (0-24% control)
[16]; 2 WAT, 0.056 kg/h
  post-emergent herbicidal activity index: 0 (0-24% control)
[16]; 4 WAT, 0.28 kg/h
  post-emergent herbicidal activity index: 3 (75-99% control)
[16]; 4 WAT, 1.12 kg/h
  post-emergent herbicidal activity index: 2 (50-74% control)
[16]; 4 WAT, 5.6 kg/h
  post-emergent herbicidal activity index: 3 (75-99% control)
[17]; Table I, 4 WAT, 5.6 kg/h
  post-emergent herbicidal activity index: 3 (75-99% control)
[17]; Table I, 4 WAT, 11.2 kg/h
  post-emergent herbicidal activity index: 3 (75-99% control)
[17]; Table II, 2 WAT, 0.011 kg/h
  post-emergent herbicidal activity index: 0 (0-24% control)
[17]; Table II, 2 WAT, 0.056 kg/h
  post-emergent herbicidal activity index: 0 (0-24% control)
[17]; Table II, 4 WAT, 0.28 kg/h
  post-emergent herbicidal activity index: 1 (25-49% control)
[17]; Table II, 4 WAT, 1.12 kg/h
  post-emergent herbicidal activity index: 1 (25-49% control)
[17]; Table II, 4 WAT, 5.6 kg/h
  post-emergent herbicidal activity index: 1 (25-49% control)
[18]; 2 WAT, 0.011 kg/h
  post-emergent herbicidal activity index: 0 (0-24% control)
[18]; 2 WAT, 0.056 kg/h
  post-emergent herbicidal activity index: 0 (0-24% control)
[18]; 4 WAT, 0.28 kg/h
  post-emergent herbicidal activity index: 1 (25-49% control)
[18]; 4 WAT, 1.12 kg/h
  post-emergent herbicidal activity index: 2 (50-74% control)
[18]; 4 WAT, 5.6 kg/h
  post-emergent herbicidal activity index: 2 (50-74% control)
[19]; 2 WAT, 0.011 kg/h
  post-emergent herbicidal activity index: 0 (0-24% control)
[19]; 2 WAT, 0.056 kg/h
  post-emergent herbicidal activity index: 0 (0-24% control)
[19]; 4 WAT, 0.28 kg/h
  post-emergent herbicidal activity index: 1 (25-49% control)
[19]; 4 WAT, 1.12 kg/h
  post-emergent herbicidal activity index: 2 (50-74% control)
[19]; 4 WAT, 5.6 kg/h
  post-emergent herbicidal activity index: 3 (75-99% control)
[20]; 5.6 kg/h
  post-emergent herbicidal activity index: 1 (25-49% control)
[20]; 11.2 kg/h
  post-emergent herbicidal activity index: 1 (25-49% control)
